Literature values, collected in US8187640B2, “Low viscosity liquid polymeric delivery system” (Dunn Research & Consulting, LLC, priority 2009, dated 2012).

System: Male Sprague Dawley rats
Conditions: given in an aqueous solution

buprenorphine HCL
Duration of efficacy in the rat tail flick test: about 5 hours
